PubChem BioAssay AID1996
Converted amounts (≈) assume the structure as drawn.

conditions: buffer; pH 7.4; 200.0 µM

**Q.** Which solubility kinetic does the source give for `CC1(C)CC(=O)N(c2ccc(Cl)cc2Cl)C(=O)C1` here?
**A.** The solubility kinetic was greater than 42.9 µg/mL.

**Q.** Which solubility kinetic does the source give for `O=c1[nH]c(CSc2nc3ccccc3s2)nc2ccccc12` here?
**A.** The solubility kinetic was 1.5 µg/mL (≈ 4.61 µM).

**Q.** With `Cc1[nH]c2ccccc2c1C(=O)CSC(=S)N1CCOCC1` as the compound, how does the solubility kinetic read?
**A.** Its solubility kinetic is 2.4 µg/mL (≈ 7.18 µM).

**Q.** Which solubility kinetic does the source give for `CC(=O)Nc1ccc(CN2CCN(C3CCCC3)C(CCO)C2)cc1` (stereo not given) here?
**A.** Its solubility kinetic is greater than 51.8 µg/mL.

**Q.** Which solubility kinetic does the source give for `COc1ccc(C(=O)N/N=C/c2cccnc2)cc1` here?
**A.** The solubility kinetic was greater than 38.3 µg/mL.

**Q.** With `COc1ccc(NC(=O)CON=CC(=O)Nc2ccc(C)cc2)c(OC)c1` as the compound, how does the solubility kinetic read?
**A.** Its solubility kinetic is 3.8 µg/mL (≈ 10.2 µM).

**Q.** With `CCOc1ncccc1C(=O)NCCc1c[nH]c2ccccc12` as the compound, how does the solubility kinetic read?
**A.** The solubility kinetic was 8.7 µg/mL (≈ 28.1 µM).

**Q.** With `Cc1nc2sccc2c(=O)n1N` as the compound, how does the solubility kinetic read?
**A.** The solubility kinetic was greater than 27.2 µg/mL.

**Q.** For `COc1cccc(C2NC(=O)NC(C)=C2C(=O)OCC2CCCO2)c1` (stereo not given), which solubility kinetic is on record?
**A.** Its solubility kinetic is 44.9 µg/mL (≈ 130 µM).

**Q.** For `O=C(O)c1ccc(-c2ccccc2)[nH]c1=O`, which solubility kinetic is on record?
**A.** Its solubility kinetic is greater than 32.3 µg/mL.

**Q.** Which solubility kinetic does the source give for `CCOC(=O)c1ccc(NC(=S)Nc2cccc(N)n2)cc1` here?
**A.** The solubility kinetic was 2.3 µg/mL (≈ 7.27 µM).

**Q.** With `Cc1nc2ccc(NC(=S)N3CCOCC3)cc2nc1C` as the compound, how does the solubility kinetic read?
**A.** The solubility kinetic was 39.3 µg/mL (≈ 130 µM).

**Q.** With `CC1CCC(NC(=O)c2ccc(COc3ccccc3)o2)CC1` (stereo not given) as the compound, how does the solubility kinetic read?
**A.** Its solubility kinetic is 1.7 µg/mL (≈ 5.42 µM).

**Q.** Which solubility kinetic does the source give for `O=C1/C(=C/c2cccnc2)SC(=S)N1CCc1ccccc1` here?
**A.** The solubility kinetic was less than 0.3 µg/mL.

**Q.** For `O=C(Nc1cccc2cccnc12)c1ccc(Br)cc1Br`, which solubility kinetic is on record?
**A.** Its solubility kinetic is less than 0.4 µg/mL.

**Q.** For `CCOc1ccc(C(=O)Nc2ccc(CN3CCOCC3)cc2)cc1Cl`, which solubility kinetic is on record?
**A.** The solubility kinetic was 27.5 µg/mL (≈ 73.4 µM).

**Q.** With `O=C1NC2(CCCCCC2)N=C1c1ccc(Br)cc1` as the compound, how does the solubility kinetic read?
**A.** The solubility kinetic was 0.9 µg/mL (≈ 2.8 µM).

**Q.** With `CC1CCCCN1Cc1cccnc1.O=C(O)C(=O)O` (stereo not given) as the compound, how does the solubility kinetic read?
**A.** Its solubility kinetic is greater than 42 µg/mL.

**Q.** For `Cc1cc2nc(C(C)(C)C)cc(N)n2n1`, which solubility kinetic is on record?
**A.** The solubility kinetic was greater than 30.6 µg/mL.

**Q.** Which solubility kinetic does the source give for `Cc1cccc(C)c1OCC(=O)Nc1ccncc1` here?
**A.** Its solubility kinetic is 21.8 µg/mL (≈ 85.1 µM).

**Q.** For `CC(=O)c1ccc(NC(=O)C(Cc2ccccc2)n2cccc2)cc1` (stereo not given), which solubility kinetic is on record?
**A.** The solubility kinetic was 1.6 µg/mL (≈ 4.81 µM).

**Q.** Which solubility kinetic does the source give for `O=C1C=C(N2CCCCCC2)C(=O)N1c1ccc(Cl)cc1` here?
**A.** Its solubility kinetic is 8.9 µg/mL (≈ 29.2 µM).

**Q.** With `COC1C(C)=C(C)C(=O)N1Cc1ccc(F)cc1` (stereo not given) as the compound, how does the solubility kinetic read?
**A.** The solubility kinetic was 31.9 µg/mL (≈ 128 µM).

**Q.** With `CCn1c(=O)c2ccccc2n(Cc2cccc([N+](=O)[O-])c2)c1=O` as the compound, how does the solubility kinetic read?
**A.** Its solubility kinetic is 0.9 µg/mL (≈ 2.77 µM).

**Q.** Which solubility kinetic does the source give for `CC(C)C(NCC(=O)Nc1ccccc1C(=O)NC1CC1)c1ccccc1` (stereo not given) here?
**A.** The solubility kinetic was greater than 54.8 µg/mL.

**Q.** Which solubility kinetic does the source give for `OCCC1CN(CC2CC2)CCN1Cc1ccc(F)c(F)c1` (stereo not given) here?
**A.** Its solubility kinetic is greater than 46.6 µg/mL.

**Q.** Which solubility kinetic does the source give for `CN(CC(=O)Nc1ccc(OC(F)(F)F)cc1)C(=O)/C=C/c1ccco1` here?
**A.** Its solubility kinetic is 7.7 µg/mL (≈ 20.9 µM).

**Q.** With `COc1ccc(NC(=O)c2cccc(Oc3ccccc3)c2)cn1` as the compound, how does the solubility kinetic read?
**A.** The solubility kinetic was 8.8 µg/mL (≈ 27.5 µM).

**Q.** For `Cc1ccccc1NCCC(=O)Nc1ccc(Cl)cc1`, which solubility kinetic is on record?
**A.** Its solubility kinetic is greater than 43.3 µg/mL.

**Q.** Which solubility kinetic does the source give for `O=C1NC(=O)C(C(CC(=O)c2ccccc2)c2ccccc2)C(=O)N1` (stereo not given) here?
**A.** The solubility kinetic was greater than 50.5 µg/mL.

**Q.** Which solubility kinetic does the source give for `Cc1ccc(C(C)C)cc1S(=O)(=O)Nc1cccnc1` here?
**A.** Its solubility kinetic is 3.5 µg/mL (≈ 12.1 µM).

**Q.** With `Cc1sc2ncnc(Nc3ccc(O)cc3)c2c1C` as the compound, how does the solubility kinetic read?
**A.** Its solubility kinetic is 1.7 µg/mL (≈ 6.27 µM).

**Q.** Which solubility kinetic does the source give for `CCC(=O)N(C(=O)CC)N1CCN(c2ccncc2S(=O)(=O)N2CCCCC2)CC1` here?
**A.** The solubility kinetic was greater than 65.6 µg/mL.

**Q.** For `Cc1ccc(NC(=O)COC(=O)CCc2ccccc2)cc1S(=O)(=O)N1CCOCC1`, which solubility kinetic is on record?
**A.** The solubility kinetic was 24.6 µg/mL (≈ 55.1 µM).

**Q.** With `O=C(CNC(=O)c1ccc(Br)o1)NCc1ccccc1` as the compound, how does the solubility kinetic read?
**A.** Its solubility kinetic is greater than 50.6 µg/mL.

**Q.** For `COc1ccc([N+](=O)[O-])cc1NC(=O)c1cccnc1`, which solubility kinetic is on record?
**A.** The solubility kinetic was 28.8 µg/mL (≈ 105 µM).

**Q.** With `CN(C(=O)CN1C(=O)c2ccccc2S1(=O)=O)C1CCCCC1` as the compound, how does the solubility kinetic read?
**A.** Its solubility kinetic is greater than 50.5 µg/mL.

**Q.** For `Cc1cc(C)cc(NC(=O)CN2CCN(C(=O)c3cccs3)CC2)c1`, which solubility kinetic is on record?
**A.** Its solubility kinetic is greater than 53.6 µg/mL.

**Q.** With `O=[N+]([O-])c1ccc(Cl)c(S(=O)(=O)Nc2cccc(S(=O)(=O)NC3=NCCC3)c2)c1` as the compound, how does the solubility kinetic read?
**A.** Its solubility kinetic is greater than 68.8 µg/mL.

**Q.** With `CCCCn1c(N)c(C(=O)NCc2cccs2)c2nc3ccccc3nc21` as the compound, how does the solubility kinetic read?
**A.** Its solubility kinetic is 1.6 µg/mL (≈ 4.22 µM).

**Q.** With `Cc1ccc(CCC(=O)NCc2ccccc2)o1` as the compound, how does the solubility kinetic read?
**A.** The solubility kinetic was greater than 36.5 µg/mL.

**Q.** Which solubility kinetic does the source give for `O=[N+]([O-])c1ccc(NC2CCCC2)c2ccncc12` here?
**A.** Its solubility kinetic is 3 µg/mL (≈ 11.7 µM).

**Q.** With `CN1CCN2c3ncccc3Cc3ccccc3[C@@H]2C1` as the compound, how does the solubility kinetic read?
**A.** Its solubility kinetic is 30.2 µg/mL (≈ 114 µM).

**Q.** With `CC(C)(C)c1ccc(-c2cnco2)cc1` as the compound, how does the solubility kinetic read?
**A.** Its solubility kinetic is 0.9 µg/mL (≈ 4.47 µM).

**Q.** Which solubility kinetic does the source give for `Cc1ccc(/C(O)=C2\C(=O)C(=O)N(C)C2c2cccc([N+](=O)[O-])c2)cc1` (stereo not given) here?
**A.** Its solubility kinetic is 51.5 µg/mL (≈ 146 µM).

**Q.** Which solubility kinetic does the source give for `CCOc1ccc(NC(=S)NC23CC4CC(CC(C4)C2)C3)cc1` here?
**A.** Its solubility kinetic is less than 0.4 µg/mL.

**Q.** With `Cc1cc(-c2ccccc2)nc(SC(C(=O)O)c2ccccc2)n1` (stereo not given) as the compound, how does the solubility kinetic read?
**A.** Its solubility kinetic is 48.1 µg/mL (≈ 143 µM).

**Q.** Which solubility kinetic does the source give for `CN(c1ccccc1)c1nc(N)c([N+](=O)[O-])c(N2CCCCCC2)n1` here?
**A.** The solubility kinetic was 2.6 µg/mL (≈ 7.59 µM).

**Q.** Which solubility kinetic does the source give for `COc1ccccc1Nc1nc(Cl)nc(Nc2ccccc2OC)n1` here?
**A.** Its solubility kinetic is less than 0.2 µg/mL.

**Q.** Which solubility kinetic does the source give for `Cc1nc(-c2ccc3c(c2)OCCCO3)cs1` here?
**A.** The solubility kinetic was 29.1 µg/mL (≈ 118 µM).

**Q.** With `O=C(Nc1cccnc1)c1cc(-c2ccccc2O)on1` as the compound, how does the solubility kinetic read?
**A.** Its solubility kinetic is 1.3 µg/mL (≈ 4.62 µM).

**Q.** Which solubility kinetic does the source give for `Fc1ccccc1NC(=S)N1CCOCC1` here?
**A.** Its solubility kinetic is greater than 36 µg/mL.

**Q.** Which solubility kinetic does the source give for `CC(=O)C(Cc1ccccc1)NC(=O)COC(=O)c1cccc(C)c1[N+](=O)[O-]` (stereo not given) here?
**A.** The solubility kinetic was greater than 57.7 µg/mL.

**Q.** With `CCCc1cc(=O)oc2cc(OCC(=O)N3CCC(C(N)=O)CC3)ccc12` as the compound, how does the solubility kinetic read?
**A.** The solubility kinetic was greater than 55.9 µg/mL.

**Q.** For `C=CCNc1nc(-c2c(C)nc3ncccn23)cs1`, which solubility kinetic is on record?
**A.** Its solubility kinetic is greater than 40.7 µg/mL.

**Q.** For `Cc1c(C(=O)CN2CCN(c3ccccc3)CC2)c2ccccc2n1C`, which solubility kinetic is on record?
**A.** Its solubility kinetic is 39.6 µg/mL (≈ 114 µM).

**Q.** Which solubility kinetic does the source give for `CCOC(=O)c1cc(NC(=O)/C=C\C(=O)O)ccc1Cl` here?
**A.** The solubility kinetic was greater than 44.7 µg/mL.

**Q.** With `O=C(NC1CCCCC1)c1ccc(-c2ccccc2F)o1` as the compound, how does the solubility kinetic read?
**A.** Its solubility kinetic is 5 µg/mL (≈ 17.4 µM).

**Q.** With `O=C(O)CCC(=O)Nc1ccc(OCC2CCCO2)cc1` (stereo not given) as the compound, how does the solubility kinetic read?
**A.** The solubility kinetic was 43.8 µg/mL (≈ 149 µM).

**Q.** For `CC(=O)c1c(C)nc2ccc([N+](=O)[O-])cc2c1-c1ccccc1`, which solubility kinetic is on record?
**A.** Its solubility kinetic is 21.9 µg/mL (≈ 71.5 µM).
